The values below come from patent US11293015B2, “Diels-Alderase and use thereof” (Peking University, priority 2020, dated 2022).

One data set concerns MaDA-1. In words: Enzymatic activity test for MaDA-1. It counts as biochemical, Morus alba. The settings on record: Diene 3 100 μM, Dienophile 1 100 μM, SUMO-MaDA-1 27 nM, pH 8.0, 50° C., 10 min. As for the experimental part:
(§1) The activity of MaDA-1 was tested as follows: to a 97 μL reaction buffer (20 mm Tris-HCl, pH=8.0), 1 μL of Diene 3 (final concentration of 100 μM) and 1 […] (final concentration of 100 μM) were added, and then 1 μL of SUMO-MaDA protein (final concentration 27 nM) or SUMO-MaDA-1 (final concentration 27 nM) was added. The reaction mixture was reacted at 50° C. for 10 min, then quenched by adding 200 μL methanol, and centrifuged at 13,000 rpm for 30 min. The supernatant was analyzed by HPLC. In the control group as blank control, no protein was added.

Data set [1] deals with MaDA. As to the kind of experiment: Enzymatic activity test, MaDA run alongside MaDA-1. As to conditions: Diene 3 100 μM, Dienophile 1 100 μM, SUMO-MaDA 27 nM, pH 8.0, 50° C., 10 min. It counts as biochemical, Morus alba. On the procedure:
as §1

The next data set relates to MaDA-2. As to the kind of experiment: Activity test of MaDA-2. It counts as biochemical, Morus alba. The settings on record: dienophile 100 μM, Diene 3, 22, 23 or 24 100 μM, SUMO-MaDA-2 54 nM, pH 8.0, 50° C., 5 min. As for the experimental part:
Under the catalyzation of MaDA-2, the reaction activity between Dienophile 1 and different dienes 3, 22, 23 and 24 was measured following the protocol as follows: to a […] reaction buffer (20 mm Tris-HCl, pH=8.0), 1 μL of Dienophile 1 (final concentration of 100 μM) and 1 μL Diene 3, 22, 23 or 24 (final concentration of 100 μM) were added, and then 1 μL of SUMO-MaDA-2 (final concentration 54 nM) was added. The reaction mixture was reacted at 50° C. for 5 min, then quenched by adding 200 μL methanol. The reaction solution was analyzed by HPLC under the analysis conditions mentioned above, and the results were shown in FIG. 20. […] However, unlike MaDA, MaDA-2 can recognize Dienophile 5 to generate corresponding natural products or their analogs.

Data set [2] concerns MaDA. In words: Conversion of dienophile substrates in the enzymatic D-A reaction. Format: biochemical, Morus alba. On the procedure:
In the present Example, the conversion of Dienophiles 1 and 5-9 under enzymatic D-A reaction conditions were also determined. The reaction conditions were as follows:
To 96 μL reaction buffer (20 mM Tris-HCl, pH 8.0) was added 2 μL Diene 3 (final concentration, 200 μM) and 1 μL different chalcones or their derivatives (i.e., Dienophiles 1 and 5-9, final concentration, 100 μM). Then 1 μL MaDA or SUMO-MaDA (final concentration, 540 nM) was added. The resulting mixture was reacted at 50° C. for 5 min. The reactions were terminated by the addition of 200 μl of methanol. The reaction liquid were analyzed using the HPLC analysis condition mentioned above. After three repeated experiments, the conversion of Dienophiles 1, 7, 8, 9, 5 and 6 are determined as 74%, 55%, 13%, 78%, 0%, 71% respectively, as shown in FIG. 12.

Data set [3] can be described thus: Optimum temperature and pH of MaDA. As to conditions: Diene 3 0.1 mM, Dienophile 1 0.1 mM, 0.02 μg MaDA, 5 min, buffers pH 4.0-11.0. It counts as biochemical. On the procedure: The effects of different reaction temperatures (25, 30, 35, 40, 45, 50, 55, 60, and 70° C.) on [4+2] cyclization catalyzed by MaDA were investigated using Diene 3 and Dienophile 1 as substrates. The reaction system was as follows: the reaction mixture (100 μL) containing Diene 3 (0.1 mM) and Dienophile 1 (0.1 mM), and 0.02 μg MaDA was reacted for 5 min in Tris HCl buffer at pH 7.5 (the buffer solution was balanced at different temperatures for 15 min in advance). After the reaction, 200 μL ice-cold methanol was added to terminate the reaction, and vortex mixing was carried out. The resulting mixture was centrifuged at 15,000 g for 30 min. The supernatant was analyzed by HPLC. […] The conversion of the substrate was calculated by substituting the peak area of the product into the standard curve to calculate the reduction of the substrate.
The effects of buffer at different pH (pH 4.0-6.0, citric acid-sodium citrate buffer; 6.0-7.0, disodium hydrogen phosphate-sodium dihydrogen phosphate buffer; 7.0-9.0, Tris HCl buffer; 9.0-11.0, sodium carbonate-sodium bicarbonate buffer) on the [4+2] cyclization reaction of MaDA was investigated using Diene 3 and Dienophile 1 as substrates. […] The supernatant was analyzed by HPLC. […] The conversion of the substrate was calculated by substituting the peak area of the product into the standard curve to calculate the reduction of substrate.

MaDA-2, sequence (as listed by the source): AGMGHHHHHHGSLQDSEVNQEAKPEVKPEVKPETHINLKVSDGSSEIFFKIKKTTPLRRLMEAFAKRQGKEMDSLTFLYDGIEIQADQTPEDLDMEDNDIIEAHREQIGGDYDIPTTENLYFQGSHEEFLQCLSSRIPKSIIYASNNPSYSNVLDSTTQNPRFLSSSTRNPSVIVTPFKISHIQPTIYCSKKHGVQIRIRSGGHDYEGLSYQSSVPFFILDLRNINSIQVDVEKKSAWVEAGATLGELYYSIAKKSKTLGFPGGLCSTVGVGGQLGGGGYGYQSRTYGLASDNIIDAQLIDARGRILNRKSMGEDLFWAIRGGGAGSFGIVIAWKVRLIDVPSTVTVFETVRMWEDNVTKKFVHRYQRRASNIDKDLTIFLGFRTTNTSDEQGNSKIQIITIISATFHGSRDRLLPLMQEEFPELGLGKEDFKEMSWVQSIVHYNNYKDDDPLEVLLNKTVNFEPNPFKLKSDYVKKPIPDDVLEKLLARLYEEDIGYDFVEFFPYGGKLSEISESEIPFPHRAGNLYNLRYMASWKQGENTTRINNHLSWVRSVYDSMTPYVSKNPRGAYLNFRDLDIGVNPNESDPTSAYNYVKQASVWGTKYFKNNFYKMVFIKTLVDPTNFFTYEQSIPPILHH

`C=C(C)/C=C/c1c(O)cc(-c2cc3ccc(O)cc3o2)cc1O` [Diene 3]: the “consumption of substrate with MaDA-1, chalcomoracin (4) produced” value in the data set with MaDA-1 was “almost completely consumed”. Further, in the data set with MaDA [1], the “consumption of substrate with MaDA, chalcomoracin (4) produced” value is listed as “almost completely consumed”.
Consider morachalcone A [Dienophile 1], for which, in the data set on MaDA-1, the “consumption of substrate with MaDA-1, chalcomoracin (4) produced” value was “almost completely consumed”. Further, in the data set with MaDA [1], the “consumption of substrate with MaDA, chalcomoracin (4) produced” value was “almost completely consumed”. Moreover, the “MaDA-2 catalysed reaction between dienophile and different dienes” value with MaDA-2 is “can also catalyze the reaction”. Also, the conversion of dienophile in the data set with MaDA [2] (Diene 3 200 μM, dienophile 100 μM, MaDA or SUMO-MaDA 540 nM, pH 8.0, 50° C., 5 min, three repeated experiments) stood at 74%. Besides, the “effective recognition of dienophile by MaDA protein” value in the data set on MaDA [2] (same condition as the conversion test (540 nM enzyme, 50° C., 5 min)) is listed as “effectively recognize”.

B1: MaDA: Diels-Alderase identified from Morus alba, amino acid sequence SEQ ID No.1 (protein)
chain: MQYFSFPSSLAKITIFLIFSFVFASSANDTHEAFLECLTTRIPSNSTFTPQSIIYTPDNPSYSTILDSTTQNPRFLSSSTRNPFAIITPLHASHIQAALYCSQKHGEQMRIRSGGHDYEGLSYQSSVPFFILDLRNLSSISIDAKSKSAWVQAGATIGELYYGIAKTSLNLSFPGGVAHTIGVGGQLGGGGYGYSTRKYGLASDNVIDAQLIDARGRILDRKTMGEDLFWAIRGGGAGSFGIVLAWKIRLVNTPSTVTIFEAVRSWENNTTKKFIRRYQRRASKTDKDLTIFVGFRTTSSTDEEGNERISILTIVSATFHGSKDRLLQLVQKEFPDLGLVSEECTEMSWVRSIIHFNLFGDEVPLEVLLNRTLNFEMKAFKLRSDYVQKPIPDDVLEKLLSKLYDEETGEGYIEFFPYGGKMSKISESEIPFPYRAGNLYNLRYMVSWKDDGNITRTNMHLSWIKDAYDYMTPYVSKDPRGAYLNFRDLDIGVNVNESDYDYVAKASVWGTKYFRNNFYRLVDIKTIVDPTNFFKYEQSIPPLPPLHSAM
B1: the “optimum pH” value in data set [3] was determined as 8.0.
